Experiments:
Assay type in all cases: physicochemical
[1] = Stability test of crystal forms under high temperature, high humidity and light exposure (HPLC purity); conditions: for Purity after 30 days at a temperature of 25° C. with a relative humidity of 90% ± 5%: 90% ± 5% RH; for Purity after 30 days at a temperature of 25° C. with a relative humidity of 90% ± 5% / Purity after 30 days at high temperature (60° C.) / Purity after 30 days at a light intensity of 4500 Lx ± 500 Lx / Initial purity: HPLC purity; for Initial purity: before stress conditions
Text: (§1) The high-performance liquid chromatography (HPLC) analysis method used in the present disclosure is as follows: an Agilent 1260 was used to test the purity and stability of the sample under the conditions shown in Table 18.
(§2) Consequently, the inventors selected four crystal forms with good reproducibility and ease of purification: crystal forms A, B, G, and Q. These crystal forms were subjected to stability tests under identical conditions of high temperature, high humidity, and light exposure.

[2] = Changes in shape of crystal forms under high temperature, high humidity and light exposure (Table 26)
Text: as §2

[3] = Purity of crystal forms at storage conditions of 25° C. and 40° C. (Table 27)
Method: as §1
The purity of crystal forms A, B, G, and Q, under identical mass and packaging conditions, was investigated at storage conditions of 25° C. and 40° C., as shown in Table 27.

[4] = Stability verification of crystal form G in different solvents (XRPD form after slurry or vapour exposure); conditions: room temperature, dried under vacuum at 50° C. for 2 hours
Method: The X-ray powder diffraction analysis method used in the present disclosure is as follows: X-ray powder diffraction testing was conducted at room temperature using a Bruker D2 PHASER diffractometer (300 W low-power X-ray emitter). During the test, a silicon wafer was used to sustain the sample powder, and an X-ray Cu (Kα) tube was used, with a Kα2/Kα1 intensity ratio of 0.50 (1.54439 Å/1.5406 Å). The instrument was set to 30 kV and 10 mA, with a step size of 0.02° (2θ), a scanning time of 0.15 s per step, for a total of 1837 steps.
Method 1: The crystal form G (50 mg) was added to 0.5 mL of the corresponding solvent (the solvent may be EtOH, H2O, or a mixture of EtOH/H2O in the ratios of 970/30, 927/73, 855/145, 704/296, v/v).
Method 2: The crystal form G (15 mg) was placed in a 4 mL glass vial, which was then placed inside a 20 mL glass vial containing 3 mL of a volatile solvent (which may be MeOH or EtOH). The 20 mL glass vial was tightly capped and left to stand at room temperature for approximately one week.

[5] = High Temperature (60° C.), 5 Days
[6] = High Temperature (60° C.), 10 Days
[7] = High Temperature (60° C.), 30 Days
[8] = Light intensity of 4500 Lx ± 500 Lx, 5 Days
[9] = Light intensity of 4500 Lx ± 500 Lx, 10 Days
[10] = Light intensity of 4500 Lx ± 500 Lx, 30 Days
[11] = Temperature of 25° C., relative humidity of 90% ± 5%, 5 Days
[12] = Temperature of 25° C., relative humidity of 90% ± 5%, 10 Days
[13] = Temperature of 25° C., relative humidity of 90% ± 5%, 30 Days

| Purity after 30 days at a temperature of 25° C. with a relative humidity of 90% ± 5% [1] [%] | Purity after 30 days at high temperature (60° C.) [1] [%] | Purity after 30 days at a light intensity of 4500 Lx ± 500 Lx [1] [%] | Initial purity [1] [%] | Shape (appearance) [2, 5] | Shape (appearance) [2, 6] | Shape (appearance) [2, 7] | Shape (appearance) ([2]; Initial State) | Shape (appearance) [2, 8] | Shape (appearance) [2, 9] | Shape (appearance) [2, 10] | Shape (appearance) [2, 11] | Shape (appearance) [2, 12] | Shape (appearance) [2, 13] | Purity on storage ([3]; 25° C., 0 Days) [%] | Purity on storage ([3]; 25° C., 15 Days) [%] | Purity on storage ([3]; 25° C., 30 Days) [%] | Purity on storage ([3]; 25° C., 45 Days) [%] | Purity on storage ([3]; 25° C., 60 Days) [%] | Purity on storage ([3]; 25° C., 90 Days) [%] | SMILES | further results |
| --- | --- | --- | --- | --- | --- | --- | --- | --- | --- | --- | --- | --- | --- | --- | --- | --- | --- | --- | --- | --- | --- |
| 98.49 | 94.57 | 94.45 | 99.28 | Off-white | Pale yellow | Yellow solid | Off-white | Off-white | Pale yellow | Yellow solid | Off-white | Off-white | Off-white | 99.03 | 98.91 | 98.93 | 98.87 | 98.85 | 98.73 | Cc1c(CCC(=O)O)[nH]c2ccc(OCc3ccc(C4CCCC4)c(C(F)(F)F)c3)cc12 [Crystal form A] | Purity on storage ([3]; 40° C., 0 Days): 99.03%; Purity on storage ([3]; 40° C., 15 Days): 98.73%; Purity on storage ([3]; 40° C., 30 Days): 98.42%; Purity on storage ([3]; 40° C., 45 Days): 98.30%; Purity on storage ([3]; 40° C., 60 Days): 98.15%; Purity on storage ([3]; 40° C., 90 Days): 97.69% |
| 98.50 | 97.21 | 94.55 | 99.44 | Off-white | Off-white | Off-white | Off-white | Off-white | Pale yellow | Yellow solid | Off-white | Off-white | Off-white | 99.14 | 99.05 | 99.00 | 98.93 | 98.94 | 98.86 | Cc1c(CCC(=O)O)[nH]c2ccc(OCc3ccc(C4CCCC4)c(C(F)(F)F)c3)cc12 [Crystal form B] | Purity on storage ([3]; 40° C., 0 Days): 99.14%; Purity on storage ([3]; 40° C., 15 Days): 98.88%; Purity on storage ([3]; 40° C., 30 Days): 98.73%; Purity on storage ([3]; 40° C., 45 Days): 98.68%; Purity on storage ([3]; 40° C., 60 Days): 98.66%; Purity on storage ([3]; 40° C., 90 Days): 98.40% |

| SMILES | Purity after 30 days at a temperature of 25° C. with a relative humidity of 90% ± 5% [1] [%] | Purity after 30 days at high temperature (60° C.) [1] [%] | Purity after 30 days at a light intensity of 4500 Lx ± 500 Lx [1] [%] | Initial purity [1] [%] | Shape (appearance) [2, 5] | Shape (appearance) [2, 6] | Shape (appearance) [2, 7] | Shape (appearance) ([2]; Initial State) | Shape (appearance) [2, 8] | Shape (appearance) [2, 9] | Shape (appearance) [2, 10] | Shape (appearance) [2, 11] | Shape (appearance) [2, 12] | Shape (appearance) [2, 13] | Purity on storage ([3]; 25° C., 0 Days) [%] | Purity on storage ([3]; 25° C., 15 Days) [%] | Purity on storage ([3]; 25° C., 30 Days) [%] | Purity on storage ([3]; 25° C., 45 Days) [%] | Purity on storage ([3]; 25° C., 60 Days) [%] | Purity on storage ([3]; 25° C., 90 Days) [%] | further results |
| --- | --- | --- | --- | --- | --- | --- | --- | --- | --- | --- | --- | --- | --- | --- | --- | --- | --- | --- | --- | --- | --- |
| Cc1c(CCC(=O)[O][Ca][O]C(=O)CCc2[nH]c3ccc(OCc4ccc(C5CCCC5)c(C(F)(F)F)c4)cc3c2C)[nH]c2ccc(OCc3ccc(C4CCCC4)c(C(F)(F)F)c3)cc12 [Crystal form G] | 98.78 | 99.12 | 96.02 | 99.60 | Off-white solid | Off-white solid | Off-white solid | Off-white solid | Off-white solid | Pale yellow | Yellow solid | Off-white solid | Off-white solid | Off-white solid | 99.48 | 99.42 | 99.43 | 99.43 | 99.41 | 99.36 | Stability under high temperature, high humidity, and light exposure conditions compared to the other crystal forms ([1]; summary of Tables 25 and 26, versus crystal forms A, B, Q): higher stability; Purity on storage ([3]; 40° C., 0 Days): 99.48%; Purity on storage ([3]; 40° C., 15 Days): 99.28%; Purity on storage ([3]; 40° C., 30 Days): 99.27%; Purity on storage ([3]; 40° C., 45 Days): 99.24%; Purity on storage ([3]; 40° C., 60 Days): 99.16%; Purity on storage ([3]; 40° C., 90 Days): 99.01%; Stability when stored at 25° C. and 40° C. for 90 days ([3]; summary of Table 27, 90 days): higher stability; Crystal form obtained after stirring in solvent ([4]; EtOH, H2O or EtOH/H2O mixtures, 4 days): obtain the crystal form G; Crystal form obtained after exposure to volatile solvent vapour ([4]; MeOH or EtOH vapour, approximately one week): obtain the crystal form G |
